{"source": "ChEMBL document CHEMBL1201862", "about": "“PubChem BioAssay data set” (2004)", "key": {"[1]": {"test": "inhibitors of firefly luciferase expression or activity, dose response, H4 neuroglioma cells, luminescence (AID 1990)", "format": "functional, cell-based"}, "[2]": {"test_system": "BJ", "test": "cytotoxicity toward BJ-TERT-LT-ST fibroblasts, dose response, cell-based, RAS-independent, luminescence (AID 1935);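 further: BJ fibroblasts immortalized with TERT plus LT and ST oncogenes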", "format": "functional", "conditions": "Homo sapiens"}, "[3]": {"test_system": "BJ", "test": "cells", "format": "functional, cell-based", "conditions": "Homo sapiens"}, "[4]": {"test": "inhibitors of SNCA 5'UTR-driven reporter translation, confirmation, H4 neuroglioma cells, luminescence (AID 1988)", "format": "functional, cell-based"}, "[5]": {"test": "C. albicans growth with fluconazole, confirmation, fluorescence, retest (AID 2467)", "format": "functional, cell-based"}, "[6]": {"test_system": "BJ", "test": "cytotoxicity toward BJ-TERT fibroblasts, dose response, cell-based, RAS-independent, luminescence (AID 1933)", "format": "functional", "conditions": "Homo sapiens"}, "[7]": {"test": "Luminescence Cell-Based Dose Response HTS to Identify Inhibitors of 5'UTR Stem-Loop Driven Prion Protein mRNA Translation in H4 Neuroglioblastoma Cells. [Related pubchem assays: 1827 (Project Summary), 1813 (Primary HTS)]", "format": "functional"}, "[8]": {"test": "cytotoxicity toward DRD oncogenic fibroblasts, dose response, cell-based, non-viral oncogenic, luminescence (AID 1934)", "format": "functional", "conditions": "Homo sapiens"}, "[9]": {"test_system": "INS1", "test": "beta cell apoptosis inhibitors, cytokine rescue, dose response, luminescence, retest (AID 449756);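 further: cell death triggered by IL-1 beta plus TNF-alpha plus IFN-gamma mixture; protective hits raise ATP signal compared with cytokine alone wells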", "format": "functional, cell-based", "conditions": "Rattus norvegicus"}, "[10]": {"test": "NIH-3T3 fibroblast cytotoxicity, dose response, cytotoxicity control, cell-based, fluorescence, Alamar Blue, secondary assay (AID 2327);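 further: NIH-3T3 mouse fibroblasts cultured with fluconazole at 8 µg/mL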", "format": "functional"}, "[11]": {"target": "T1, Aminopeptidase N (Plasmodium falciparum FcB1/Columbia, UniProt O96935)", "T1 sequence (O96935 whole entry)": "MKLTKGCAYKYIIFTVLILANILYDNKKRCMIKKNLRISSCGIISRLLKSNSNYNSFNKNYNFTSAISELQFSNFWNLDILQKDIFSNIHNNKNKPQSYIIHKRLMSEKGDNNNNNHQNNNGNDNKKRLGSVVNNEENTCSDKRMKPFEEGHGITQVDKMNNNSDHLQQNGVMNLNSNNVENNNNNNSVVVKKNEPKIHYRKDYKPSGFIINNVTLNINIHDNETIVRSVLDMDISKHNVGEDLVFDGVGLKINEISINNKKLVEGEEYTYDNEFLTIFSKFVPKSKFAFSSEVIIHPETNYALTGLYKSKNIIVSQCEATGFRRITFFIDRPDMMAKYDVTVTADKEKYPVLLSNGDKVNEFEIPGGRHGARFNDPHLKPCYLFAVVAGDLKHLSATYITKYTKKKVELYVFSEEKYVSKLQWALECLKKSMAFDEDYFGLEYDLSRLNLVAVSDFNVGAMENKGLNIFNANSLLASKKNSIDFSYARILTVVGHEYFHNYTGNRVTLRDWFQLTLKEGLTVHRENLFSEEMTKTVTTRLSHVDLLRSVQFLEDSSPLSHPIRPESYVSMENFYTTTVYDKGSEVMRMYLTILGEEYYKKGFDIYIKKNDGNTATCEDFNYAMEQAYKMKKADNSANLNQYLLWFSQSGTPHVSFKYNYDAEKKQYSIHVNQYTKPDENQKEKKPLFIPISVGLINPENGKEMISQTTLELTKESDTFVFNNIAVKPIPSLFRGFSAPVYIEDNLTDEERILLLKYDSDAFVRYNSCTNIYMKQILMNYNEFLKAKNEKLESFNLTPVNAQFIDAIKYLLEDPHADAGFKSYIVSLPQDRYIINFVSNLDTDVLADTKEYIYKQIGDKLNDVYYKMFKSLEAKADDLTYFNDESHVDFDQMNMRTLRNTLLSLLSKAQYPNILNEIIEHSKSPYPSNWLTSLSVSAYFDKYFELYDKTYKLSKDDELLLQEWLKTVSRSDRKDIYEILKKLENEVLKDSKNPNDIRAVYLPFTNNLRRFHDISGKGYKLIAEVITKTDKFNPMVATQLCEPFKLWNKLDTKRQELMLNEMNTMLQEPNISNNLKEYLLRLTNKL", "test": "P. falciparum M1AAP inhibitors, biochemical, fluorogenic H-Leu-NHMec substrate, 1536-well (AID 1445)", "parameters": "species or system Plasmodium falciparum 3D7, 3D7"}, "[12]": {"target": "Estrogen receptor beta (Homo sapiens, UniProt Q92731)", "sequence (Q92731 whole entry)": "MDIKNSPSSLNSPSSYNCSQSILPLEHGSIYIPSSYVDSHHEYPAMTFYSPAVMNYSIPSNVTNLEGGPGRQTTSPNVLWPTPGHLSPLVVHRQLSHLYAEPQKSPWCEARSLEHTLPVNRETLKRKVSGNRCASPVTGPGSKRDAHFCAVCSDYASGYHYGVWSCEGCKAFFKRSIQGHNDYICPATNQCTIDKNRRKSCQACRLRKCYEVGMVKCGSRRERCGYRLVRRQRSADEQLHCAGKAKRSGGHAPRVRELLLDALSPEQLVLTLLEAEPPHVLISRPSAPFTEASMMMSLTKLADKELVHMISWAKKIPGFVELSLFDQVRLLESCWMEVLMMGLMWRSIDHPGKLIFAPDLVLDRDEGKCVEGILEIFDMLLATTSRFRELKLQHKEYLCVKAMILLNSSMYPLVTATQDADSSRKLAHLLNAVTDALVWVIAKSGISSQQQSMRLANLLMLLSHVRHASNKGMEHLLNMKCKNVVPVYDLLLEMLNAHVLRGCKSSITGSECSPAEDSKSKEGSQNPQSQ"}, "[13]": {"target": "T2, Protein RecA (Mycobacterium tuberculosis, UniProt P9WHJ3)", "T2 sequence (P9WHJ3 whole entry)": "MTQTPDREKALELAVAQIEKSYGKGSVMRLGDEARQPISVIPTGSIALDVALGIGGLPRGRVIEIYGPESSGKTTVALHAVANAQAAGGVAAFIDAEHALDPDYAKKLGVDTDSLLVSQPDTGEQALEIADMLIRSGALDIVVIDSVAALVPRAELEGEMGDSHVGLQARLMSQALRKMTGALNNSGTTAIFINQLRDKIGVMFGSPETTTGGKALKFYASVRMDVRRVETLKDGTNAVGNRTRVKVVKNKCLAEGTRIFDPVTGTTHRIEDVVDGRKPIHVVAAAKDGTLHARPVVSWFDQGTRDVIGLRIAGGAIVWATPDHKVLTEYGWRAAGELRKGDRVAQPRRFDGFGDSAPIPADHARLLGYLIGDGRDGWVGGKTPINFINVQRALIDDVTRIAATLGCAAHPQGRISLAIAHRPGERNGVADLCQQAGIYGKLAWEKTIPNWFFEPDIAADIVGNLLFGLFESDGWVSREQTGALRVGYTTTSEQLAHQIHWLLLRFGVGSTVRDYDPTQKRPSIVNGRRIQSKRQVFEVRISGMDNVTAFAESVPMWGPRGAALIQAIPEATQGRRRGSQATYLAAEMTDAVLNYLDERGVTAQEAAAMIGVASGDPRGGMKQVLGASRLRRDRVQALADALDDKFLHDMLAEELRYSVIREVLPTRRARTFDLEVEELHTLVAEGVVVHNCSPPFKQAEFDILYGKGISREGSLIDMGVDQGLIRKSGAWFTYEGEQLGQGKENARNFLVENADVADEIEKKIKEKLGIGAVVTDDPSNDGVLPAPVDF", "test": "Fluorescence Cell-Free Homogeneous Dose Retest to Identify Inhibitors of RecA-Intein Splicing Activity. [Related pubchem assays (depositor defined):AID2097, AID2223, AID489010, AID492950]", "format": "functional"}, "[14]": {"target": "T3, Replicative DNA helicase DnaB (Mycobacterium tuberculosis, UniProt P9WMR3)", "T3 sequence (P9WMR3 whole entry)": "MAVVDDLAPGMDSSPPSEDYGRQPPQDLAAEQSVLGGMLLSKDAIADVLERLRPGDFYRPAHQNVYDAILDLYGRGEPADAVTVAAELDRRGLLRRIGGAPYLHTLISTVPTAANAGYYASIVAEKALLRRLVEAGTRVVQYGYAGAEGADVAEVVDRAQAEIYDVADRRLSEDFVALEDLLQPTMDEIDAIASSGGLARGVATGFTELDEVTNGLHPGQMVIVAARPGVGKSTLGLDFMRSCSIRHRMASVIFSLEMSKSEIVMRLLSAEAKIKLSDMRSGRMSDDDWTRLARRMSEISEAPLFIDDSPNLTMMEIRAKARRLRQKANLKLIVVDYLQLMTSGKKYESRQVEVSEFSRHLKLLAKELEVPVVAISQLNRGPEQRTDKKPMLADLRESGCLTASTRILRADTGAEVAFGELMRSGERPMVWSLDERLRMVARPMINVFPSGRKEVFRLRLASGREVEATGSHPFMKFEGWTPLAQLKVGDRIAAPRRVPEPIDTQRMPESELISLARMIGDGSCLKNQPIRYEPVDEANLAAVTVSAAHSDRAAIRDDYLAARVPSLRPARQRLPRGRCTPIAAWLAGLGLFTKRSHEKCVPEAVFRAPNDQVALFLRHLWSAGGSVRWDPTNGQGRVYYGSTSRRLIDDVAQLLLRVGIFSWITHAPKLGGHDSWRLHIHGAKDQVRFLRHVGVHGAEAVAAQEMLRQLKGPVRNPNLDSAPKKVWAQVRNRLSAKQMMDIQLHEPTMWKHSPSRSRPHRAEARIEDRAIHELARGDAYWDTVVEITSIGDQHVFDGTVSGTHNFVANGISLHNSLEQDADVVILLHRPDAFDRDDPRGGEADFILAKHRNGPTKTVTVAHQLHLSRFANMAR", "test": "DnaB intein splicing inhibitors, dose response, biochemical, cell-free fluorescence (AID 449749)", "format": "functional"}, "[15]": {"target": "Glyceraldehyde-3-phosphate dehydrogenase (Homo sapiens, UniProt P04406)", "sequence (P04406 whole entry)": "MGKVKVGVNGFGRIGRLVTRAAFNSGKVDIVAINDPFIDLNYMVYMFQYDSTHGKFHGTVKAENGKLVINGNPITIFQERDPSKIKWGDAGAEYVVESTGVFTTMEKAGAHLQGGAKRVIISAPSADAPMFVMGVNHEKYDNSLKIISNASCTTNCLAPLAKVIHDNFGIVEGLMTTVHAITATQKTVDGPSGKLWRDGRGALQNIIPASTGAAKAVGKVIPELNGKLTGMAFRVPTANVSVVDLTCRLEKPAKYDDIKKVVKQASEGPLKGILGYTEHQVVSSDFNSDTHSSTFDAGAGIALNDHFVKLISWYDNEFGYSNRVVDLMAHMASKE"}, "[16]": {"test_system": "HEK293", "test": "inhibitors of LMP1-driven NF-kB reporter, dose response, cell-based, HEK293, luciferase, cherry-pick (AID 588343)", "format": "functional", "conditions": "Homo sapiens"}, "[17]": {"test": "MC4R antagonists, dose response, counter-screen for LGR2 antagonist project, cell-based, plate reader, cherry pick (AID 743444);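 further: transfected HEK 293 cells stimulated with alpha-MSH peptide; potency of inhibitors of the alpha-MSH evoked signal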", "format": "functional"}, "[18]": {"test": "LGR2 antagonists, dose response, cell-based, HEK293, CRE-luciferase reporter, cherry pick, set 2 (AID 743343);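 further: transfected cells were stimulated with diluted bursicon conditioned medium after compound addition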", "format": "functional"}, "[19]": {"target": "T4, DNA repair protein RAD52 homolog (Homo sapiens, UniProt P43351)", "T4 sequence (P43351 whole entry)": "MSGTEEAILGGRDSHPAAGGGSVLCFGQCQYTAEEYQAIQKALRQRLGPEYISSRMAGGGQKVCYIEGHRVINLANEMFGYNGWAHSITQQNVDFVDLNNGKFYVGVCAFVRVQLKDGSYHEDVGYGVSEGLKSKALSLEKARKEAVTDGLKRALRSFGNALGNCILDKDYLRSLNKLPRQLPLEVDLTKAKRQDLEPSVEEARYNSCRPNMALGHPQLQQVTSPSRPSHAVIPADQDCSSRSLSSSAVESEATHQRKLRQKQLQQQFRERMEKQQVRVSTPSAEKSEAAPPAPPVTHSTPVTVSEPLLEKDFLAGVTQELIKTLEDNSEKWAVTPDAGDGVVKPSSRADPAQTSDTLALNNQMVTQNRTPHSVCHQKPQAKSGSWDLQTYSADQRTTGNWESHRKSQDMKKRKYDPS", "format": "functional, biochemical"}}, "note": "The source made the active and inactive calls. For most assays here, no stated cut-off is given here; in the data, actives have a measured EC50 and inactives only a lower limit.", "data": [{"smiles": "COc1ccc(-[n+]2c(-c3ccccc3)cc(-c3ccccc3)cc2-c2ccccc2)cc1.[O-][Cl+3]([O-])([O-])[O-]", "values": [{"measurement": "EC50", "setting": "[1]", "result": "11 µM (active)"}, {"measurement": "EC50", "setting": "[2]", "result": "> 150 µM (inconclusive)"}, {"measurement": "EC50", "setting": "[3]", "result": "14.1 µM (active)"}, {"measurement": "EC50", "setting": "[4]", "result": "17.9 µM (active)"}, {"measurement": "EC50", "setting": "[5]", "result": "0.046 µM (active)"}, {"measurement": "EC50", "setting": "[6]", "result": "11.7 µM (inconclusive)"}, {"measurement": "EC50", "setting": "[7]", "result": "> 120 µM (not active)"}, {"measurement": "EC50", "setting": "[8]", "result": "14.1 µM (active)"}, {"measurement": "AC50", "setting": "[9]", "result": "1.33 µM (active)"}, {"measurement": "EC50", "setting": "[10]", "result": "40.7 µM (active)"}]}, {"smiles": "CC(=O)NC(=S)NNC(=O)COc1ccc(Br)cc1", "values": [{"measurement": "IC50", "setting": "[11]", "result": "2.57 µM (active)"}]}, {"smiles": "COc1ccc(Cn2nnnc2C(c2ccccc2OC)N2CCC(C(N)=O)CC2)cc1", "note": "(centres undefined)", "values": [{"measurement": "IC50", "setting": "[12]", "result": "> 50 µM (not active)"}]}, {"smiles": "O=C(NC1CCCC1)C(c1ccc(F)cc1)N(Cc1ccccc1Cl)C(=O)CCl", "note": "(centres undefined)", "values": [{"measurement": "EC50", "setting": "[2]", "result": "> 150 µM (inconclusive)"}, {"measurement": "EC50", "setting": "[3]", "result": "14.8 µM (active)"}, {"measurement": "EC50", "setting": "[6]", "result": "5.5 µM (active)"}, {"measurement": "EC50", "setting": "[13]", "result": "0.215 µM (active)"}, {"measurement": "AC50", "setting": "[14]", "result": "> 380 µM (inactive)"}, {"measurement": "EC50", "setting": "[8]", "result": "8.7 µM (active)"}]}, {"smiles": "N#C/C(=C\\c1c(N2CCC(C(N)=O)CC2)nc2ccccn2c1=O)S(=O)(=O)c1ccccc1", "values": [{"measurement": "IC50", "setting": "[12]", "result": "> 50 µM (not active)"}]}, {"smiles": "O=C(O)c1cc(NS(=O)(=O)c2cccc3cccnc23)ccc1O", "values": [{"measurement": "IC50", "setting": "[15]", "result": "> 100 µM (not active)"}]}, {"smiles": "O=C(CN1C(=O)c2ccccc2S1(=O)=O)c1ccc(F)c(F)c1", "values": [{"measurement": "AC50", "setting": "[16]", "result": "6.76 µM (active)"}, {"measurement": "AC50", "setting": "[17]", "result": "3.42 µM (active)"}, {"measurement": "AC50", "setting": "[18]", "result": "9.41 µM (active)"}]}, {"smiles": "CCCNc1nc(Cl)nc(NCc2cccnc2)n1", "values": [{"measurement": "AC50", "setting": "[19]", "result": "4.26 µM (active)"}]}]}
